Data set [1] is described as follows: Antioxidant activity, ORAC (Oxygen Radical Absorbance Capacity) test. It is filed as biochemical. The procedure: Antioxidant activity was measured using the ORAC (Oxygen Radical Absorbance Capacity) test.
The test was based on measuring the inhibition induced by an antioxidant on the loss of activity of a fluorescent indicator, in the presence of oxidants.
In practice, given a fluorescent indicator (fluorescein) which loses its fluorescence due to the action of an oxidising agent (AAPH), antioxidant activity was evaluated in terms of maintenance of the fluorescence of the indicator over time, due to the ability of the antioxidant to counteract the action of the oxidising agent.
Antioxidant activity was assessed by spectrofluorometric assay, measuring the decay of the fluorescence of the indicator over time (from 0 to 360 minutes). A measuring the fluorescence of the sodium fluorescein indicator was performed using a spectrofluorimeter at a wavelength of 515 nm.
Antioxidant activity is expressed as the antioxidant power in relation to Trolox® at the same concentration of the samples.

Data set [2] is described as follows: Solubility in buffered water at pH=7 after 24 hours (equilibrium). The conditions noted are these: pH 7, aqueous buffer, thermodynamic from solid.
Protocol: An excess of powder is added to buffered water at pH=7 until a precipitate is obtained.
For data set [3] the following is noted: background statement; cited from earlier work.

≈ marks a conversion by molar mass, not a printed value.

Results on 6 compounds are retold here after US20080219963A1, “Composition Containing Micronutrients With Improved Anti-Oxidant Activity And The Use Thereof” (ACTIMEX S.R.L. AREA Science Park, priority 2005, published 2008).

`CC1=C(/C=C/C(C)=C/C=C/C(C)=C/C=C/C=C(C)/C=C/C=C(C)/C=C/C2=C(C)C(=O)[C@@H](O)CC2(C)C)C(C)(C)C[C@H](O)C1=O` [ASTAXANTIN (alone), astaxantin]: the Rel. antiox. activity in data set [1] (astaxantin alone at equal concentration = 1) was 1.
By solubility is commonly meant the concentration that dissolves in the medium under given conditions. A lower solubility goes with a poorly soluble substance. `O=c1c(-c2ccc(O)cc2)coc2cc(O)cc(O)c12` [GENISTEIN (alone), genistein]: the Rel. antiox. activity in data set [1] (genistein alone at equal concentration = 1) was 1. In data set [2], this compound came in with a solubility at 24 h of 10 µg/mL (≈ 37 µM).
On to `O=C(O)CCCCC1CCSS1` (stereo not drawn) [LIPOIC ACID (alone), lipoic acid], for which the Rel. antiox. activity in data set [1] (lipoic acid alone at equal concentration = 1) is given as 1.
In turn, `CC(C)=CCC/C(C)=C/C=C/C(C)=C/C=C/C(C)=C/C=C/C=C(C)/C=C/C=C(C)/C=C/C=C(\C)CCC=C(C)C` [LYCOPENE (alone), lycopene] had a Rel. antiox. activity in data set [1] (lycopene alone at equal concentration = 1) of 1.
Compound `Oc1ccc(C=Cc2cc(O)cc(O)c2)cc1` [RESVERATROL (alone), resveratrol] registered a solubility at 24 h in data set [2] (buffered water) of 150 µg/mL (≈ 657 µM).
In turn, `COC1=C(OC)C(=O)C(C/C=C(\C)CC/C=C(\C)CC/C=C(\C)CC/C=C(\C)CC/C=C(\C)CC/C=C(\C)CC/C=C(\C)CC/C=C(\C)CC/C=C(\C)CCC=C(C)C)=C(C)C1=O` [UBIDECARENONE (alone), ubidecarenone] displayed a Relative antiox. activity in data set [1] (ubidecarenone alone at equal concentration = 1) of 1. Moreover, the “solubility in water or in aqueous environments” value in data set [3] was less than 0.1 mg/mL. Moreover, in data set [2] (buffered water), the solubility at 24 h worked out at 2 µg/mL (≈ 2.32 µM).
